In the NIST ThermoML archive (doi:10.1016/j.jct.2017.10.012):

Conditions: Liquid, Vibrating tube method

CCCC[N+](C)(C)C.O=S(=O)([N-]S(=O)(=O)C(F)(F)F)C(F)(F)F [butyltrimethylammonium bis(trifluoromethylsulfonyl)imide]
Conditions	mass density [kg/m3]
278.15 K, 100 kPa	1411.9
278.15 K, 101.33 kPa	1411.6
278.15 K, 1000 kPa	1412.6
278.15 K, 10000 kPa	1419
278.15 K, 20000 kPa	1425.6
278.15 K, 40000 kPa	1438.3
278.15 K, 60000 kPa	1450
278.15 K, 80000 kPa	1460.7
278.15 K, 100000 kPa	1470.6
278.15 K, 120000 kPa	1480.6
279.15 K, 101.33 kPa	1410.6
280.15 K, 101.33 kPa	1409.6
281.15 K, 101.33 kPa	1408.6
282.15 K, 101.33 kPa	1407.7
283.15 K, 101.33 kPa	1406.7
284.15 K, 101.33 kPa	1405.7
285.15 K, 101.33 kPa	1404.8
286.15 K, 101.33 kPa	1403.8
287.15 K, 101.33 kPa	1402.9
288.15 K, 101.33 kPa	1402
289.15 K, 101.33 kPa	1401
290.15 K, 101.33 kPa	1400.1
291.15 K, 101.33 kPa	1399.2
292.15 K, 101.33 kPa	1398.3
293.15 K, 101.33 kPa	1397.4
294.15 K, 101.33 kPa	1396.5
295.15 K, 101.33 kPa	1395.6
296.15 K, 101.33 kPa	1394.7
297.15 K, 101.33 kPa	1393.8
298.15 K, 100 kPa	1394
298.15 K, 101.33 kPa	1392.9
298.15 K, 1000 kPa	1394.7
298.15 K, 10000 kPa	1401.2
298.15 K, 20000 kPa	1408.2
298.15 K, 40000 kPa	1421.2
298.15 K, 60000 kPa	1433.1
298.15 K, 80000 kPa	1444.1
298.15 K, 100000 kPa	1454.5
298.15 K, 120000 kPa	1464.3
299.15 K, 101.33 kPa	1392
300.15 K, 101.33 kPa	1391.1
301.15 K, 101.33 kPa	1390.2
302.15 K, 101.33 kPa	1389.4
303.15 K, 101.33 kPa	1388.5
304.15 K, 101.33 kPa	1387.6
305.15 K, 101.33 kPa	1386.7
306.15 K, 101.33 kPa	1385.8
307.15 K, 101.33 kPa	1385
308.15 K, 101.33 kPa	1384.1
309.15 K, 101.33 kPa	1383.2
310.15 K, 101.33 kPa	1382.4
311.15 K, 101.33 kPa	1381.5
312.15 K, 101.33 kPa	1380.6
313.15 K, 100 kPa	1380.9
313.15 K, 101.33 kPa	1379.7
313.15 K, 1000 kPa	1381.6
313.15 K, 10000 kPa	1388.4
313.15 K, 20000 kPa	1395.7
313.15 K, 40000 kPa	1409.2
313.15 K, 60000 kPa	1421.7
313.15 K, 80000 kPa	1433
313.15 K, 100000 kPa	1443.7
313.15 K, 120000 kPa	1453.7
314.15 K, 101.33 kPa	1378.9
315.15 K, 101.33 kPa	1378
316.15 K, 101.33 kPa	1377.1
317.15 K, 101.33 kPa	1376.3
318.15 K, 101.33 kPa	1375.4
319.15 K, 101.33 kPa	1374.5
320.15 K, 101.33 kPa	1373.7
321.15 K, 101.33 kPa	1372.8
322.15 K, 101.33 kPa	1372
323.15 K, 101.33 kPa	1371.1
324.15 K, 101.33 kPa	1370.3
325.15 K, 101.33 kPa	1369.4
326.15 K, 101.33 kPa	1368.6
327.15 K, 101.33 kPa	1367.7
328.15 K, 101.33 kPa	1366.8
329.15 K, 101.33 kPa	1366
330.15 K, 101.33 kPa	1365.1
331.15 K, 101.33 kPa	1364.3
332.15 K, 101.33 kPa	1363.4
333.15 K, 100 kPa	1363.4
333.15 K, 101.33 kPa	1362.6
333.15 K, 1000 kPa	1364.2
333.15 K, 10000 kPa	1371.6
333.15 K, 20000 kPa	1379.3
333.15 K, 40000 kPa	1393.4
333.15 K, 60000 kPa	1406.4
333.15 K, 80000 kPa	1418.3
333.15 K, 100000 kPa	1429.5
333.15 K, 120000 kPa	1439.8
334.15 K, 101.33 kPa	1361.7
335.15 K, 101.33 kPa	1360.9
336.15 K, 101.33 kPa	1360
337.15 K, 101.33 kPa	1359.2
338.15 K, 101.33 kPa	1358.3
339.15 K, 101.33 kPa	1357.5
340.15 K, 101.33 kPa	1356.7
341.15 K, 101.33 kPa	1355.9
342.15 K, 101.33 kPa	1355
343.15 K, 101.33 kPa	1354.1
344.15 K, 101.33 kPa	1353.3
345.15 K, 101.33 kPa	1352.6
346.15 K, 101.33 kPa	1351.6
347.15 K, 101.33 kPa	1350.8
348.15 K, 100 kPa	1350.3
348.15 K, 101.33 kPa	1349.9
348.15 K, 1000 kPa	1351
348.15 K, 10000 kPa	1358.7
348.15 K, 20000 kPa	1366.7
348.15 K, 40000 kPa	1381.5
348.15 K, 60000 kPa	1394.9
348.15 K, 80000 kPa	1407.1
348.15 K, 100000 kPa	1418.6
348.15 K, 120000 kPa	1429.3
349.15 K, 101.33 kPa	1349.2
350.15 K, 101.33 kPa	1348.3
351.15 K, 101.33 kPa	1347.4
352.15 K, 101.33 kPa	1346.6
353.15 K, 101.33 kPa	1345.7
354.15 K, 101.33 kPa	1344.9
355.15 K, 101.33 kPa	1344
356.15 K, 101.33 kPa	1343.2
357.15 K, 101.33 kPa	1342.3
358.15 K, 101.33 kPa	1341.5
359.15 K, 101.33 kPa	1340.6
360.15 K, 101.33 kPa	1339.8
361.15 K, 101.33 kPa	1338.9
362.15 K, 101.33 kPa	1338
363.15 K, 101.33 kPa	1337
364.15 K, 101.33 kPa	1336.1
365.15 K, 101.33 kPa	1335.2
366.15 K, 101.33 kPa	1334.3
367.15 K, 101.33 kPa	1333.4
368.15 K, 101.33 kPa	1332.5
369.15 K, 101.33 kPa	1331.7
370.15 K, 101.33 kPa	1330.9
371.15 K, 101.33 kPa	1330.1
372.15 K, 101.33 kPa	1329.2
373.15 K, 100 kPa	1329.5
373.15 K, 101.33 kPa	1328.4
373.15 K, 1000 kPa	1329.7
373.15 K, 10000 kPa	1338
373.15 K, 20000 kPa	1346.6
373.15 K, 40000 kPa	1362.3
373.15 K, 60000 kPa	1376.5
373.15 K, 80000 kPa	1389.5
373.15 K, 100000 kPa	1401.5
373.15 K, 120000 kPa	1412.7
398.15 K, 100 kPa	1309.1
398.15 K, 1000 kPa	1308.9
398.15 K, 10000 kPa	1317.8
398.15 K, 20000 kPa	1327
398.15 K, 40000 kPa	1343.7
398.15 K, 60000 kPa	1358.6
398.15 K, 80000 kPa	1372.3
398.15 K, 100000 kPa	1384.8
398.15 K, 120000 kPa	1396.6
